Reference: patent US5252322A, “Skin tanning compositions containing imidazoles” (The Gillette Company, priority 1992, dated 1993)

Tests used:
tyrosinase [1] = experiment: Tyrosinase activity assay of cell cultures stimulated with imidazole (cell line not stated); format: cell-based; details: four days, control (0 mM) 111.9
Procedure: (§1) A screening test is employed to select compounds in vitro before in vivo testing. The better compounds are found to stimulate higher levels of tyrosinase activity in cell cultures. Often the increase in tyrosinase activity is accompanied by a small decrease in cell number.
(§2) To obtain more rapid results, the tests can be run with a melanoma cell line such as Cloudman S91 melanoma cells. However, if desired, normal human melanocytes (NHM) can also be employed. The compounds to be tested are added as aqueous solutions to the cell culture medium. After four days, the cells are harvested and counted, and a tyrosinase activity assay and a total protein determination are run on cell pellets.
Dose-response curves from tyrosinase assays of cells stimulated with imidazole have slopes of about 1.1.

[2] = system: pigmented guinea pig skin; experiment: In vivo tanning test on pigmented guinea pig skin
Procedure: To confirm the results of in vitro testing, in vivo testing was conducted on pigmented guinea pig skin. Five animals were used in each of the treatment or control groups.
1. Animals were clipped in a suitably pigmented area over the back or flank and chemically depilated prior to the first treatments. The area was at least 4 cm^2. The treatment site was 3 cm^2 and was carefully marked. Photographs of areas to be treated were taken prior to initial treatments. Animals were clipped as needed throughout the study, depilation was only done prior to evaluations.
2. Concentrations of imidazole of 0.1, 0.5, 1.0 and 2.0M were applied as a liquid in 50% EtOH. 100 μL volumes were applied via pipette and glass rod with minimal rubbing of the skin.
3. Treatments were made daily, 5 days per week for 3 weeks. Visual observations and photographic records were made at the study midpoint and 24 hours after the last treatment. Animals were clipped and depilated prior to these evaluations.
4. The animals were monitored for two weeks following the last treatment. At the end of the fifth week, animals were photographed.

tyrosinase [3] = experiment: Tyrosinase activity screening in S91 melanoma cell line; format: cell-based
Procedure: as §1, §2

tyrosinase [4] = experiment: Tyrosinase activity screening in normal human melanocytes (NHM); format: cell-based; details: NHM, 0.5, 10 and 50 mM
Procedure: as §1, §2

With `c1c[nH]cn1` [imidazole] the “tyrosinase activity, DPM/1000 cells” value (tyrosinase [1]; 0.5 mM) was 210.7 DPM/1000 cells, the “tyrosinase activity, DPM/1000 cells” value (tyrosinase [1]; 1.0 mM) was 263.2 DPM/1000 cells and the “tyrosinase activity, DPM/1000 cells” value (tyrosinase [1]; 5.0 mM) was 329.2 DPM/1000 cells. For the same molecule, the “tyrosinase activity, DPM/1000 cells” value (tyrosinase [1]; 10.0 mM) was 516.1 DPM/1000 cells, the “visual observation of treated sites (darkening)” value ([2]; 0.1, 0.5, 1.0 and 2.0M in 50% EtOH, topical 100 μL daily, 5 days per week for 3 weeks) was “darkening for all areas” and the skin irritation ([2]; 2.0M solution in 50% EtOH, topical) was “appeared to mildly irritate the skin of some of the animals”. For the same molecule, the “visual observation of treated sites (degree of tanning)” value ([2]; at 0.5 to 1.0M in 50% EtOH, topical, 3 weeks) was “most tanning”, the “course of darkening over time” value ([2]; daily topical treatments for 3 weeks) was “continued to increase through the third week” and the “number of treatments after which darkening was observed” value ([2]; daily topical treatments, 5 days per week) was 5-10 treatments.
In the case of `O=C1NCCN1` [2-imidazolidone], the “tyrosinase activity versus control” value (tyrosinase [3]; at 50 mM (tested 0.5, 10, 50 mM)) is reported as “slight increase” and the “tyrosinase activity versus control” value (tyrosinase [4]) is reported as “moderate inhibition”.
`OCc1c[nH]cn1` [4-(hydroxymethyl)imidazole] was tested, and the “tyrosinase activity versus control” value (tyrosinase [3]; at 0.25 and 0.5 mM (tested 0.1, 0.25, 0.5 mM)) was “slightly increased”.
In the case of `N[C@@H](Cc1c[nH]cn1)C(=O)O` [L-histidine monochloride monohydrate], the “tyrosinase activity versus control” value (tyrosinase [3]; at 0.5 mM (tested 0.5 and 10 mM)) is reported as “increased tyrosinase activity”.
`O=Cc1ncc[nH]1` [2-imidazolecarboxaldehyde] was tested, and the “tyrosinase activity versus control” value (tyrosinase [3]; at 0.5 mM (tested 0.1, 0.25, 0.5 mM)) was “elevated” and the “tyrosinase activity versus control” value (tyrosinase [3]; at 0.1 and 0.25 mM) was “decreased activity”.
With `O=C(O)Cc1c[nH]cn1` [4-imidazoleacetic acid] the “tyrosinase activity versus control” value (tyrosinase [3]; 0.5 and 10 mM, may be due to acidic pH of test solutions) was “dose dependent decrease”.
